According to patent publication US7713985B2, “Adenosine Aa2 receptor antagonists” (Schering Corporation, priority 2006, dated 2010):

Target: T1, Human A2a Adenosine Receptor (Homo sapiens, UniProt P29274)
T1 construct: purchased Receptor Biology, Inc., Beltsville, Md; RB-HA2a
Assay: Human adenosine A2a receptor competition binding assay
Conditions: [3H]-SCH 58261 displacement, human A2a membranes
Method: Human Adenosine A2a and A1 Receptor Competition Binding Assay Protocol
A2a: Human A2a Adenosine Receptor membranes, Catalog #RB-HA2a, Receptor Biology, Inc., Beltsville, Md. Dilute to 17 μg/100 μl in membrane dilution buffer (see below).
Membrane dilution buffer: Dulbecco's Phosphate Buffered Saline (Gibco/BRL)+10 mM MgCl2.
Compound Dilution Buffer: Dulbecco's Phosphate Buffered Saline (Gibco/BRL)+10 mM MgCl2 supplemented with 1.6 mg/ml methyl cellulose and 16% DMSO. Prepared fresh daily.
A2a: [3H]-SCH 58261, custom synthesis, AmershamPharmacia Biotech, Piscataway, N.J. Stock is prepared at 1 nM in membrane dilution buffer. Final assay concentration is 0.5 nM.
A2a: To determine non-specific binding, add 100 nM CGS 15923 (RBI, Natick, Mass.). Working stock is prepared at 400 nM in compound dilution buffer.
Prepare 1 mM stock solutions of compounds in 100% DMSO. Dilute in compound dilution buffer. Test at 10 concentrations ranging from 3 μM to 30 pM. Prepare working solutions at 4× final concentration in compound dilution buffer.
Perform assays in deep well 96 well plates. Total assay volume is 200 μl. Add 50 μl compound dilution buffer (total ligand binding) or 50 μl CGS 15923 working solution (A2a non-specific binding) or 50 μl NECA working solution (A1 non-specific binding) or 50 μl of drug working solution. Add 50 μl ligand stock ([3H]-SCH 58261 for A2a, [3H]-DPCPX for A1). Add 100 μl of diluted membranes containing the appropriate receptor. Mix. Incubate at room temperature for 90 minutes. Harvest using a Brandel cell harvester onto Packard GF/B filter plates. Add 45 μl Microscint 20 (Packard), and count using the Packard TopCount Microscintillation Counter. Determine IC50 values by fitting the displacement curves using an iterative curve fitting program (Excel). Determine Ki values using the Cheng-Prusoff equation.

T1 sequence (P29274 whole entry): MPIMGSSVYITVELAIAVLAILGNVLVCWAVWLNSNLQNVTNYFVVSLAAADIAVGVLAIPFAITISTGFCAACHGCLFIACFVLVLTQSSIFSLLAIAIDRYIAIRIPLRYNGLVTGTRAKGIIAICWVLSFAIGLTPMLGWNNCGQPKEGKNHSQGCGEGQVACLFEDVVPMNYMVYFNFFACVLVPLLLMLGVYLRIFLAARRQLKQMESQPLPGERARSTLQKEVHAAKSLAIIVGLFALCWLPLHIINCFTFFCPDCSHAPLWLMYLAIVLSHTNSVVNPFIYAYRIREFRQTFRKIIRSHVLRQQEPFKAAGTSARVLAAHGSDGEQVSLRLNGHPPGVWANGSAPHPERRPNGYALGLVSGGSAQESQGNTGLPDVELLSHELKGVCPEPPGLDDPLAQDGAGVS

Ki [nM] | Compound
12 | Nc1nc2ccccc2c2nn(Cc3c(Cl)cccc3Cl)c(=O)n12 [Example 8]
4.7 | Nc1nc2ccccc2c2nn(Cc3cccc(Cl)c3)c(=O)n12 [Example 13]
12.2 | Nc1nc2ccccc2c2nn(Cc3cccc(F)c3)c(=O)n12 [Example 12]
